Laboratory results as given in US12098145B2 (Libra Therapeutics, Inc., priority 2022, dated 2024).

target: T1, TRPML1 (Homo sapiens, UniProt Q9GZU1); assay: Cellular TRPML1 assay (FLIPR, GCaMP6f calcium read-out); assay type: cell-based; details: HEKT-REx/GCaMP6f/TRPML1 cells, FLIPR TETRA, kinetic response over 300 seconds; read-out: TRPML1 FLIPR pEC50 (converted)
T1 construct: expressed in transfected cells; host or cells: HEK T-REx cells stably expressing GCaMP6f and TRPML1
Description: Example A: Cellular TRPML1 Assay
The final clone for the TRPML1 assay is HEKT-REx/GCaMP6f/TRPML1. GCaMP6f is a genetically encoded calcium indicator that is stably expressed in this cell line and used as a fluorescent read-out.
Experiments were performed in 384 MTP format. Cells are seeded at 15000 cells/well in 20 μl/well of Optimem+0.5% FBS without selection antibiotics. Twenty-four hours later, cells are assayed for the response to various compounds using the Ca^2+ sensitive GCaMP6f protein stably expressed in the cells as readout.
The experiment was performed in a 384-well format according to the following procedures: • 24 h after seeding, the cells were pre-incubated at room temperature for about 10 min. • Started the experiment at the FLIPR^TETRA by injecting 10 μL/w of 3× concentrated test compounds and controls in Ca^2+ free Tyrode's buffer. Monitored the kinetic response over a period of 300 seconds. • Final DMSO concentration: 0.5%
Data from FLIPR^TETRA measurements were analyzed with the Genedata Screener© software.

T1 sequence (Q9GZU1 whole entry): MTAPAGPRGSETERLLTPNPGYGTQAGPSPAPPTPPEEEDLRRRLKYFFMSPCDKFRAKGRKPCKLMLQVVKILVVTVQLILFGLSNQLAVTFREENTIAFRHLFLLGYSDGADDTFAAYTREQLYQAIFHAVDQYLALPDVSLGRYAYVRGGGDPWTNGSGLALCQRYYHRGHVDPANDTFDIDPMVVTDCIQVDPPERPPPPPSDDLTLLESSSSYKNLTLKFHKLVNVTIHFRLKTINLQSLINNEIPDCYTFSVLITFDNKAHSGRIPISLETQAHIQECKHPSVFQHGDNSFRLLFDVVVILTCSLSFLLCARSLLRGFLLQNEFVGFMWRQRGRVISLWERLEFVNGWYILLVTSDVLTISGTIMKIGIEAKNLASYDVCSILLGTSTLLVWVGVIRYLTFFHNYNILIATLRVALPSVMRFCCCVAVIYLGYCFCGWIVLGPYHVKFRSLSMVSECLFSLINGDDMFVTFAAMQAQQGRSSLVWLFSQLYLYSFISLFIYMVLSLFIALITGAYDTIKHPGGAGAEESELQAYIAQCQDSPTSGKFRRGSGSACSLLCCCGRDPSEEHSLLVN

Structure (SMILES) | EC50 [nM]
N#CC1CN(c2nc(C(=O)Nc3ccc(OC4CCCC4(F)F)c(F)c3)c(CC(F)(F)F)o2)C1 (stereo not shown) [Example 2, 2-(3-cyanoazetidin-1-yl)-N-{4-[(2,2-difluorocyclopentyl)oxy]-3-fluorophenyl}-5-(2,2,2-trifluoroethyl)-1,3-oxazole-4-carboxamide] | 1000 to 10000
COC1CN(c2nc(C(=O)Nc3ccc(OC4CCCC4(F)F)c(F)c3)c(CC(F)(F)F)o2)C1 (stereo not shown) [Example 8, N-(4-((2,2-difluorocyclopentyl)oxy)-3-fluorophenyl)-2-(3-methoxyazetidin-1-yl)-5-(2,2,2-trifluoroethyl)oxazole-4-carboxamide] | 1000 to 10000
O=C(Nc1ccc(OC2CCCC2(F)F)c(F)c1)c1nc(N2C3CCC2CC3)oc1CC(F)(F)F (stereo not shown) [Example 9, 2-{7-azabicyclo[2.2.1]heptan-7-yl}-N-{4-[(2,2-difluorocyclopentyl)oxy]-3-fluorophenyl}-5-(2,2,2-trifluoroethyl)oxazole-4-carboxamide] | 1000 to 10000
O=C(Nc1ccc(OC2CCCC2(F)F)c(F)c1)c1nc(N2CC3C(C2)C3(F)F)oc1CC(F)(F)F (stereo not shown) [Example 10, 2-{6,6-difluoro-3-azabicyclo[3.1.0]hexan-3-yl}-N-{4-[(2,2-difluorocyclopentyl)oxy]-3-fluorophenyl}-5-(2,2,2-trifluoroethyl)oxazole-4-carboxamide] | 1000 to 10000
O=C(Nc1ccc(OC2CCCC2(F)F)c(F)c1)c1nc(N2CCCC23CC3)oc1CC(F)(F)F (stereo not shown) [Example 11, N-(4-((2,2-difluorocyclopentyl)oxy)-3-fluorophenyl)-2-(4-azaspiro[2.4]heptan-4-yl)-5-(2,2,2-trifluoroethyl)oxazole-4-carboxamide] | 1000 to 10000
O=C(Nc1ccc(OC2CCCC2(F)F)c(F)c1)c1nc(N2CC(F)(F)C2)oc1CC(F)(F)F (stereo not shown) [Example 16, 2-(3,3-difluoroazetidin-1-yl)-N-{4-[(2,2-difluorocyclopentyl)oxy]-3-fluorophenyl}-5-(2,2,2-trifluoroethyl)oxazole-4-carboxamide] | 10 to 1000
O=C(Nc1ccc(OC2CCCC2(F)F)c(F)c1)c1nc(N2CC(C(F)(F)F)C2)oc1CC(F)(F)F (stereo not shown) [Example 18, N-(4-((2,2-difluorocyclopentyl)oxy)-3-fluorophenyl)-5-(2,2,2-trifluoroethyl)-2-(3-(trifluoromethyl)azetidin-1-yl)oxazole-4-carboxamide] | 10 to 1000
O=C(Nc1ccc(OC2CCCC2(F)F)c(F)c1)c1nc(N2CC3CCCC3C2)oc1CC(F)(F)F (stereo not shown) [Example 23, N-(4-((2,2-difluorocyclopentyl)oxy)-3-fluorophenyl)-2-(hexahydrocyclopenta[c]pyrrol-2(1H)-yl)-5-(2,2,2-trifluoroethyl)oxazole-4-carboxamide] | 10 to 1000
CC(C)OC1CN(c2nc(C(=O)Nc3ccc(OC4CCCC4(F)F)c(F)c3)c(CC(F)(F)F)o2)C1 (stereo not shown) [Example 24, N-{4-[(2,2-difluorocyclopentyl)oxy]-3-fluorophenyl}-2-[3-(propan-2-yloxy)azetidin-1-yl]-5-(2,2,2-trifluoroethyl)oxazole-4-carboxamide] | 1000 to 10000
O=C(Nc1ccc(N2CCCCC2)c(F)c1)c1nc(N2C[C@H]3CCO[C@H]3C2)oc1CC(F)(F)F [Example 26, 2-[(3aR,6aR)-hexahydro-5H-furo[2,3-c]pyrrol-5-yl]-N-[3-fluoro-4-(piperidin-1-yl)phenyl]-5-(2,2,2-trifluoroethyl)oxazole-4-carboxamide] | 1000 to 10000
O=C(Nc1ccc(N2CCCCC2)c(F)c1)c1nc(N2CCC3(CC3)C2)oc1CC(F)(F)F [Example 27, 2-{5-azaspiro[2.4]heptan-5-yl}-N-[3-fluoro-4-(piperidin-1-yl)phenyl]-5-(2,2,2-trifluoroethyl)-1,3-oxazole-4-carboxamide] | 1000 to 10000
CC1CCCN1c1nc(C(=O)Nc2ccc(N3CCCCC3)c(F)c2)c(CC(F)(F)F)o1 (stereo not shown) [Example 29, N-(3-fluoro-4-(piperidin-1-yl)phenyl)-2-(2-methylpyrrolidin-1-yl)-5-(2,2,2-trifluoroethyl)oxazole-4-carboxamide] | 1000 to 10000
O=C(Nc1cc(F)c(OC2CC3C[C@H]3C2)c(F)c1)c1nc(N2CCC3(COC3)C2)oc1CC(F)(F)F (stereo partly drawn) [Example 35, N-(4-{cis-bicyclo[3.1.0]hexan-3-yloxy}-3,5-difluorophenyl)-2-{2-oxa-6-azaspiro[3.4]octan-6-yl}-5-(2,2,2-trifluoroethyl)oxazole-4-carboxamide] | 10 to 1000
CC1(C)CN(c2nc(C(=O)Nc3cc(F)c(OC4CC5C[C@H]5C4)c(F)c3)c(CC(F)(F)F)o2)C1 (stereo partly drawn) [Example 37, N-(4-{cis-bicyclo[3.1.0]hexan-3-yloxy}-3,5-difluorophenyl)-2-(3,3-dimethylazetidin-1-yl)-5-(2,2,2-trifluoroethyl)oxazole-4-carboxamide] | 10 to 1000
O=C(Nc1cc(F)c(OC2CC3C[C@H]3C2)c(F)c1)c1nc(N2CC3CCCC3C2)oc1CC(F)(F)F (stereo partly drawn) [Example 40, N-(4-{cis-bicyclo[3.1.0]hexan-3-yloxy}-3,5-difluorophenyl)-2-{octahydrocyclopenta[c]pyrrol-2-yl}-5-(2,2,2-trifluoroethyl)oxazole-4-carboxamide] | 10 to 1000
COC1CCC(Oc2ccc(NC(=O)c3nc(N4CCCC4)oc3CC(F)(F)F)cc2F)C1 (stereo not shown) [Example 43, N-{3-fluoro-4-[(3-methoxycyclopentyl)oxy]phenyl}-2-(pyrrolidin-1-yl)-5-(2,2,2-trifluoroethyl)oxazole-4-carboxamide] | 1000 to 10000
O=C(Nc1ccc(OC2CC(F)(F)C2)c(F)c1)c1nc(N2CCCC2)oc1CC(F)(F)F [Example 44, N-[4-(3,3-difluorocyclobutoxy)-3-fluorophenyl]-2-(pyrrolidin-1-yl)-5-(2,2,2-trifluoroethyl)oxazole-4-carboxamide] | 1000 to 10000
CC1(C)CC(Oc2ccc(NC(=O)c3nc(N4CCCC4)oc3CC(F)(F)F)cc2F)CO1 (stereo not shown) [Example 45, N-{4-[(5,5-dimethyloxolan-3-yl)oxy]-3-fluorophenyl}-2-(pyrrolidin-1-yl)-5-(2,2,2-trifluoroethyl)oxazole-4-carboxamide] | 1000 to 10000

Second part, the compound after the results:

EC50 [nM] | Structure (SMILES)
10 to 1000 | CC1(C)CN(c2nc(C(=O)Nc3cc(F)c(OC4CCCOC4)c(F)c3)c(CC(F)(F)F)o2)C1 (racemic) [Example 72, N-(3,5-difluoro-4-((tetrahydro-2H-pyran-3-yl)oxy)phenyl)-2-(3,3-dimethylazetidin-1-yl)-5-(2,2,2-trifluoroethyl)oxazole-4-carboxamide]
10000 to 100000 | O=C(Nc1ccc(OC2CCCC2(F)F)c(F)c1)c1nc(N2Cc3ccccc3C2)oc1CC(F)(F)F (stereo not shown) [Example 1, N-{4-[(2,2-difluorocyclopentyl)oxy]-3-fluorophenyl}-2-(2,3-dihydro-1H-isoindol-2-yl)-5-(2,2,2-trifluoroethyl)-1,3-oxazole-4-carboxamide]
1000 to 10000 | O=C(Nc1ccc(OC2CCCC2(F)F)c(F)c1)c1nc(N2CCc3ccccc32)oc1CC(F)(F)F (stereo not shown) [Example 5, N-(4-((2,2-difluorocyclopentyl)oxy)-3-fluorophenyl)-2-(indolin-1-yl)-5-(2,2,2-trifluoroethyl)oxazole-4-carboxamide]
1000 to 10000 | COCC1CCN(c2nc(C(=O)Nc3ccc(OC4CCCC4(F)F)c(F)c3)c(CC(F)(F)F)o2)C1 (stereo not shown) [Example 7, N-(4-((2,2-difluorocyclopentyl)oxy)-3-fluorophenyl)-2-(3-(methoxymethyl)pyrrolidin-1-yl)-5-(2,2,2-trifluoroethyl)oxazole-4-carboxamide]
1000 to 10000 | O=C(Nc1ccc(OC2CCCC2(F)F)c(F)c1)c1nc(N2CC3CCOC3C2)oc1CC(F)(F)F (stereo not shown) [Example 12, N-(4-((2,2-difluorocyclopentyl)oxy)-3-fluorophenyl)-2-(hexahydro-5H-furo[2,3-c]pyrrol-5-yl)-5-(2,2,2-trifluoroethyl)oxazole-4-carboxamide]
1000 to 10000 | O=C(Nc1ccc(OC2CCCC2(F)F)c(F)c1)c1nc(N2CC3(CCOCC3)C2)oc1CC(F)(F)F (stereo not shown) [Example 14, N-(4-((2,2-difluorocyclopentyl)oxy)-3-fluorophenyl)-2-(7-oxa-2-azaspiro[3.5]nonan-2-yl)-5-(2,2,2-trifluoroethyl)oxazole-4-carboxamide]
10000 to 100000 | O=C(Nc1ccc(N2CCCCC2)c(F)c1)c1nc(N2CCC3(CC2)CS(=O)(=O)C3)oc1CC(F)(F)F [Example 25, 2-(2,2-dioxo-2-thia-7-azaspiro[3.5]nonan-7-yl)-N-[3-fluoro-4-(piperidin-1-yl)phenyl]-5-(2,2,2-trifluoroethyl) oxazole-4-carboxamide]
10 to 1000 | O=C(Nc1cc(F)c(OC2CC3C[C@H]3C2)c(F)c1)c1nc(N2CC3(C2)CC(F)(F)C3)oc1CC(F)(F)F (stereo partly drawn) [Example 34, N-(4-(cis-bicyclo[3.1.0]hexan-3-yloxy)-3,5-difluorophenyl)-2-(6,6-difluoro-2-azaspiro[3.3]heptan-2-yl)-5-(2,2,2-trifluoroethyl)oxazole-4-carboxamide]
10 to 1000 | O=C(Nc1cc(F)c(OC2CC3C[C@H]3C2)c(F)c1)c1nc(N2CC3(CCCC3)C2)oc1CC(F)(F)F (stereo partly drawn) [Example 41, N-(4-(cis-bicyclo[3.1.0]hexan-3-yloxy)-3,5-difluorophenyl)-2-(2-azaspiro[3.4]octan-2-yl)-5-(2,2,2-trifluoroethyl)oxazole-4-carboxamide]
1000 to 10000 | O=C(Nc1ccc(OCC(F)(F)F)c(F)c1)c1nc(N2CCCC2)oc1CC(F)(F)F [Example 42, N-(3-fluoro-4-(2,2,2-trifluoroethoxy)phenyl)-2-(pyrrolidin-1-yl)-5-(2,2,2-trifluoroethyl)oxazole-4-carboxamide]
